The source of these data is ChEMBL document CHEMBL5131534, “Identification of 2-Pyridinylindole-Based Dual Antagonists of Toll-like Receptors 7 and 8 (TLR7/8)” (ACS Med Chem Lett, 2022).

pIC50: −log10 of the molar value.

Data set [1] concerns Mus musculus. The data set is described as follows: Anti-inflammatory activity against MRL/Ipr Systemic lupus erythematosus mouse model assessed as inhibition of anti-dsDNA Ab titer at 20 mg/kg, po administered for 8 weeks and measured 24 hrs post final dose relative to control. Type of data set: functional. Set-up: scale not given: the % may be the effect or the level left. The conditions noted are these: time 1368 hrs.

In data set [2] the test system is Mus musculus. The data set is described as follows: Anti-inflammatory activity against MRL/Ipr Systemic lupus erythematosus mouse model assessed as inhibition of anti-dsDNA Ab titer at 1 mg/kg, po administered for 8 weeks and measured 24 hrs post final dose relative to control. The settings on record: time 1368 hrs. It counts as functional. Set-up: scale not given: the % may be the effect or the level left.

For data set [3], the system named is Mus musculus. The data set is described as follows: Anti-inflammatory activity against MRL/Ipr Systemic lupus erythematosus mouse model assessed as inhibition of proteinuria at 0.1 mg/kg, po administered for 8 weeks and measured 24 hrs post final dose relative to control. It counts as functional. Set-up: scale not given: the % may be the effect or the level left. The settings on record: time 1368 hrs.

For data set [4], the system named is Mus musculus. Description: Anti-inflammatory activity against MRL/Ipr Systemic lupus erythematosus mouse model assessed as inhibition of urinary NGAL at 5 mg/kg, po administered for 8 weeks and measured 24 hrs post final dose relative to control. The conditions noted are these: time 1368 hrs. Type of data set: functional. More on the design: scale not given: the % may be the effect or the level left.

Data set [5] in a line: In vivo antagonist activity at TRL9 in C57BL/6 mouse assessed as inhibition of ODN1585 stimulated IL-6 production at 30 mg/kg,po for 30 minutes and followed by ODN1585 addition measured after 90 mins by ELISA analysis relative to control. Type of data set: functional. Set-up: scale not given: the % may be the effect or the level left. The conditions noted are these: time 120 min, 2 h.

The next data set addresses T1, Toll-like receptor 8 (Homo sapiens, UniProt Q9NR97).
T1 sequence (Q9NR97 whole entry): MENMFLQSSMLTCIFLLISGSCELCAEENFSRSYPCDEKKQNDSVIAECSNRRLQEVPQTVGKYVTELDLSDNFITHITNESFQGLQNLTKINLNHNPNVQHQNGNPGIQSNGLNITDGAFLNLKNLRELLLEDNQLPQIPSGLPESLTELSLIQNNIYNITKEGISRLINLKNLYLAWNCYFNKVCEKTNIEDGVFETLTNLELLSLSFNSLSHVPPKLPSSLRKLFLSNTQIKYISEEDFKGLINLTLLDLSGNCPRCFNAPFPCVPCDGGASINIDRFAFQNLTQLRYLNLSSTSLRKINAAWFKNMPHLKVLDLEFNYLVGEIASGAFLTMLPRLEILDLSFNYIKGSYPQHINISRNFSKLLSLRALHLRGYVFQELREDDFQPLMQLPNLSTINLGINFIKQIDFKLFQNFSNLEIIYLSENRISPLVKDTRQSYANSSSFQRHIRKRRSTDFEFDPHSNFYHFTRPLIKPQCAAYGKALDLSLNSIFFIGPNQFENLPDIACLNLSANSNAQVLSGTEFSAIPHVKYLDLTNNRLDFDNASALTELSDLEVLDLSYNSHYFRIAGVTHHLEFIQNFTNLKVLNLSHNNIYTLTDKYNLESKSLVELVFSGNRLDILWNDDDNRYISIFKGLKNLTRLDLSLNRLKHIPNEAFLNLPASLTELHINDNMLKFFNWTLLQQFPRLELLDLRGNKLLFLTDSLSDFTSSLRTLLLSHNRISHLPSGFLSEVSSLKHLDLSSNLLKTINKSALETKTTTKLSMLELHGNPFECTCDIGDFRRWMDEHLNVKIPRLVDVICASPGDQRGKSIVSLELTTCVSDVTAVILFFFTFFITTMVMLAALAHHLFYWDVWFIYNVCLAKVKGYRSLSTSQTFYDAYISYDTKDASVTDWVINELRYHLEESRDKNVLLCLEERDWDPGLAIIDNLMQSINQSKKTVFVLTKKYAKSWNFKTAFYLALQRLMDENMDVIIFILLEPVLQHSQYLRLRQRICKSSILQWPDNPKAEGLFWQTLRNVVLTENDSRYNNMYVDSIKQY

Data set [6] has as its system Mus musculus. The data set is described as follows: Anti-inflammatory activity against MRL/Ipr Systemic lupus erythematosus mouse model assessed as inhibition of urinary NGAL at 1 mg/kg, po administered for 8 weeks and measured 24 hrs post final dose relative to control. Type of data set: functional. Set-up: scale not given: the % may be the effect or the level left. The settings on record: time 1368 hrs.

Data set [7] in a line: Volume of distribution at steady state in mouse blood at 5 mg/kg, iv. Type of data set: ADME, organism-based. The conditions noted are these: read-out: Vdss.
The nature of data set [8]: Toxicity in MRL/Ipr Systemic lupus erythematosus mouse model assessed as drug tolerability at 0.1 to 20 mg/kg, po administered for 8 weeks and measured 24 hrs post final dose. Type of data set: organism-based. The conditions noted are these: in vivo, 1368 h, dose 0.1-20 mg/kg.
The subject of data set [9] is Mus musculus. Description: Anti-inflammatory activity against MRL/Ipr Systemic lupus erythematosus mouse model assessed as inhibition of proteinuria at 5 mg/kg, po administered for 8 weeks and measured 24 hrs post final dose relative to control. Type of data set: functional. Set-up: scale not given: the % may be the effect or the level left. The settings on record: time 1368 hrs.

Data set [10] concerns Mus musculus. The data set is described as follows: Anti-inflammatory activity against MRL/Ipr Systemic lupus erythematosus mouse model assessed as inhibition of proteinuria at 20 mg/kg, po administered for 8 weeks and measured 24 hrs post final dose relative to control. The settings on record: time 1368 hrs. It counts as functional. Set-up: scale not given: the % may be the effect or the level left.

Data set [11] is described as follows: In vivo antagonist activity at TRL7 in C57BL/6 mouse assessed as inhibition of gardiquimod stimulated IL-6 production at 0.05 mg/kg,po for 30 minutes and followed by gardiquimod addition measured after 90 mins by ELISA analysis relative to control. It counts as functional. Set-up: scale not given: the % may be the effect or the level left. The conditions noted are these: time 120 min, 2 h.

Data set [12] is described as follows: Plasma protein binding in human assessed as free fraction. It counts as ADME, cell-free.
Data set [13] can be described thus: Toxicity in MRL/Ipr Systemic lupus erythematosus mouse model assessed as relative spleen weight at 5 mg/kg, po administered for 8 weeks and measured 24 hrs post final dose relative to control. It counts as organism-based. The conditions noted are these: in vivo, 1368 h.
Data set [14] in a line: Toxicity in MRL/Ipr Systemic lupus erythematosus mouse model assessed as relative spleen weight at 20 mg/kg, po administered for 8 weeks and measured 24 hrs post final dose relative to control. It counts as organism-based. The settings on record: in vivo, 1368 h.
The test system of data set [15] is Mus musculus. The data set is described as follows: Anti-inflammatory activity against MRL/Ipr Systemic lupus erythematosus mouse model assessed as inhibition of urinary NGAL at 20 mg/kg, po administered for 8 weeks and measured 24 hrs post final dose relative to control. The settings on record: time 1368 hrs. More on the design: scale not given: the % may be the effect or the level left. Type of data set: functional.

The nature of data set [16]: AUClast in mouse blood at 15 mg/kg, po. It counts as ADME, organism-based. Set-up: time 0 - last, dose 15 mg/kg, route po.

Regarding `Cc1cc(-c2[nH]c3ccc(C4CCNCC4)cc3c2C(C)C)cc(C)n1`, the Activity with Mus musculus [1] is listed as 53%; in the data set on Mus musculus [2] it was 14%; with Mus musculus [3], 69%; in the data set on Mus musculus [4], 72%; in data set [5], 38%; with Mus musculus [6], 69%. The Activity result was “Non-Toxic” in data set [8]; 92% in the data set with Mus musculus [9]; 93% in the data set on Mus musculus [10]; 66% in data set [11]; 49% in data set [13]; 51% in data set [14]. The Activity in the data set with Mus musculus [15] stood at 81%. On Toll-like receptor 8, the pIC50 was 8.38. Also, the Vd in data set [7] turned out to be 113 L/kg. In data set [12], the fraction unbound was 0.09. For the same molecule, the AUC(0-t) in [16] came to 2.77 µM·h.
